Results from BigSolDB 2.1.

O=C(O)/C=C/c1ccccc1Cl
Conditions | solubility (mole fraction)
in 2-butanone, 272.15 K | 0.00431
in 2-butanone, 278.45 K | 0.00535
in 2-butanone, 283.35 K | 0.00626
in 2-butanone, 288.35 K | 0.00733
in 2-butanone, 292.75 K | 0.00837
in 2-butanone, 297.75 K | 0.00968
in 2-butanone, 302.55 K | 0.0111
in 2-butanone, 307.05 K | 0.0126
in 2-butanone, 312.35 K | 0.0145
in 2-butanone, 317.05 K | 0.0164
in 2-butanone, 321.45 K | 0.0183
in 2-pentanone, 272.15 K | 0.00424
in 2-pentanone, 278.45 K | 0.00526
in 2-pentanone, 283.35 K | 0.00618
in 2-pentanone, 288.35 K | 0.00723
in 2-pentanone, 292.75 K | 0.00827
in 2-pentanone, 297.75 K | 0.0096
in 2-pentanone, 302.55 K | 0.011
in 2-pentanone, 307.05 K | 0.0125
in 2-pentanone, 312.35 K | 0.0144
in 2-pentanone, 317.05 K | 0.0163
in 2-pentanone, 321.45 K | 0.0182
in acetone, 272.15 K | 0.00376
in acetone, 278.45 K | 0.00474
in acetone, 283.35 K | 0.00563
in acetone, 288.35 K | 0.00668
in acetone, 292.75 K | 0.00771
in acetone, 297.75 K | 0.00907
in acetone, 302.55 K | 0.0105
in acetone, 307.05 K | 0.012
in acetone, 312.35 K | 0.014
in acetone, 317.05 K | 0.016
in acetone, 321.45 K | 0.0181
in acetonitrile, 272.15 K | 0.000253
in acetonitrile, 278.45 K | 0.000362
in acetonitrile, 283.35 K | 0.000474
in acetonitrile, 288.35 K | 0.000617
in acetonitrile, 292.75 K | 0.000773
in acetonitrile, 297.75 K | 0.000994
in acetonitrile, 302.55 K | 0.00125
in acetonitrile, 307.05 K | 0.00154
in acetonitrile, 312.35 K | 0.00195
in acetonitrile, 317.05 K | 0.0024
in acetonitrile, 321.45 K | 0.00289
in ethanol, 272.15 K | 0.00229
in ethanol, 278.45 K | 0.00295
in ethanol, 283.45 K | 0.0036
in ethanol, 288.35 K | 0.00431
in ethanol, 292.85 K | 0.00508
in ethanol, 298.15 K | 0.00614
in ethanol, 302.95 K | 0.00722
in ethanol, 307.35 K | 0.00833
in ethanol, 312.05 K | 0.00969
in ethanol, 316.55 K | 0.0112
in ethanol, 321.55 K | 0.013
in ethyl acetate, 272.15 K | 0.00231
in ethyl acetate, 278.45 K | 0.00294
in ethyl acetate, 283.35 K | 0.00351
in ethyl acetate, 288.35 K | 0.00417
in ethyl acetate, 292.75 K | 0.00484
in ethyl acetate, 297.75 K | 0.00571
in ethyl acetate, 302.55 K | 0.00665
in ethyl acetate, 307.05 K | 0.00764
in ethyl acetate, 312.35 K | 0.00894
in ethyl acetate, 317.05 K | 0.0102
in ethyl acetate, 321.45 K | 0.0116
in ethyl formate, 272.15 K | 0.000925
in ethyl formate, 278.45 K | 0.00124
in ethyl formate, 283.35 K | 0.00155
in ethyl formate, 288.35 K | 0.00193
in ethyl formate, 292.75 K | 0.00232
in ethyl formate, 297.75 K | 0.00285
in ethyl formate, 302.55 K | 0.00345
in ethyl formate, 307.05 K | 0.0041
in ethyl formate, 312.35 K | 0.00497
in ethyl formate, 317.05 K | 0.0059
in ethyl formate, 321.45 K | 0.00688
in isobutanol, 272.15 K | 0.0013
in isobutanol, 278.45 K | 0.00167
in isobutanol, 283.45 K | 0.00211
in isobutanol, 288.35 K | 0.00266
in isobutanol, 292.85 K | 0.00324
in isobutanol, 298.15 K | 0.00403
in isobutanol, 302.95 K | 0.00489
in isobutanol, 307.35 K | 0.00591
in isobutanol, 312.05 K | 0.00724
in isobutanol, 316.55 K | 0.00855
in isobutanol, 321.55 K | 0.0106
in isopentanol, 272.15 K | 0.00208
in isopentanol, 278.45 K | 0.00259
in isopentanol, 283.45 K | 0.00322
in isopentanol, 288.35 K | 0.00396
in isopentanol, 292.85 K | 0.00475
in isopentanol, 298.15 K | 0.0058
in isopentanol, 302.95 K | 0.00691
in isopentanol, 307.35 K | 0.00821
in isopentanol, 312.05 K | 0.00988
in isopentanol, 316.55 K | 0.0115
in isopentanol, 321.55 K | 0.014
in isopropanol, 272.15 K | 0.00181
in isopropanol, 278.45 K | 0.00245
in isopropanol, 283.45 K | 0.00309
in isopropanol, 288.35 K | 0.00385
in isopropanol, 292.85 K | 0.00468
in isopropanol, 298.15 K | 0.00585
in isopropanol, 302.95 K | 0.00712
in isopropanol, 307.35 K | 0.00848
in isopropanol, 312.05 K | 0.0101
in isopropanol, 316.55 K | 0.012
in isopropanol, 321.55 K | 0.0144
in methanol, 272.15 K | 0.00174
in methanol, 278.45 K | 0.00224
in methanol, 283.45 K | 0.00273
in methanol, 288.35 K | 0.00328
in methanol, 292.85 K | 0.00387
in methanol, 298.15 K | 0.00465
in methanol, 302.95 K | 0.00549
in methanol, 307.35 K | 0.0064
in methanol, 312.05 K | 0.00739
in methanol, 316.55 K | 0.00857
in methanol, 321.55 K | 0.01
in methyl acetate, 272.15 K | 0.00189
in methyl acetate, 278.45 K | 0.00244
in methyl acetate, 283.35 K | 0.00296
in methyl acetate, 288.35 K | 0.00358
in methyl acetate, 292.75 K | 0.00422
in methyl acetate, 297.75 K | 0.00505
in methyl acetate, 302.55 K | 0.00596
in methyl acetate, 307.05 K | 0.00694
in methyl acetate, 312.35 K | 0.00823
in methyl acetate, 317.05 K | 0.00956
in methyl acetate, 321.45 K | 0.0109
in n-butanol, 272.15 K | 0.00231
in n-butanol, 278.45 K | 0.00288
in n-butanol, 283.45 K | 0.00356
in n-butanol, 288.35 K | 0.00438
in n-butanol, 292.85 K | 0.00522
in n-butanol, 298.15 K | 0.00636
in n-butanol, 302.95 K | 0.00757
in n-butanol, 307.35 K | 0.00895
in n-butanol, 312.05 K | 0.0107
in n-butanol, 316.55 K | 0.0124
in n-butanol, 321.55 K | 0.0151
in n-pentanol, 272.15 K | 0.00268
in n-pentanol, 278.45 K | 0.0033
in n-pentanol, 283.45 K | 0.00404
in n-pentanol, 288.35 K | 0.00491
in n-pentanol, 292.85 K | 0.00583
in n-pentanol, 298.15 K | 0.00704
in n-pentanol, 302.95 K | 0.00832
in n-pentanol, 307.35 K | 0.00977
in n-pentanol, 312.05 K | 0.0116
in n-pentanol, 316.55 K | 0.0134
in n-pentanol, 321.55 K | 0.0162
in n-propanol, 272.15 K | 0.00202
in n-propanol, 278.45 K | 0.00267
in n-propanol, 283.45 K | 0.00332
in n-propanol, 288.35 K | 0.00408
in n-propanol, 292.85 K | 0.0049
in n-propanol, 298.15 K | 0.00602
in n-propanol, 302.95 K | 0.00723
in n-propanol, 307.35 K | 0.00848
in n-propanol, 312.05 K | 0.01
in n-propanol, 316.55 K | 0.0117
in n-propanol, 321.55 K | 0.0139
in toluene, 272.15 K | 0.000149
in toluene, 278.45 K | 0.000225
in toluene, 283.35 K | 0.000307
in toluene, 288.35 K | 0.000415
in toluene, 292.75 K | 0.000538
in toluene, 297.75 K | 0.000716
in toluene, 302.55 K | 0.000932
in toluene, 307.05 K | 0.00119
in toluene, 312.35 K | 0.00156
in toluene, 317.05 K | 0.00197
in toluene, 321.45 K | 0.00246
